Experiments:
mP2X7 = mP2X7 (Mus musculus (Mouse), UniProt Q9Z1M0); test: mP2X7 channel calcium-influx assay (Fluo-8 NW, FLIPR TETRA, Bz-ATP stimulation); format: cell-based
In short: (§1)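 HEK-293 cells stably expressing human or mouse P2X7, preloaded with Fluo-8 NW dye for 1 h at RT. Compounds added, Bz-ATP-evoked Ca2+ influx followed as fluorescence kinetics over 5 min on FLIPR TETRA; A438079 served as reference antagonist.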

CYP4503A4 = CYP4503A4 metabolic induction (mRNA expression) in human cryopreserved platable hepatocytes; format: in vitro ADME; conditions: 10 μM test compound, two days treatment, mRNA by QuantiGene Plex 2.0
Protocol: In Vitro Evaluation of Test Compounds for CYP4503A4 Metabolic Induction Using Human Liver Hepatocytes.
CYP induction assessment was performed using human cryopreserved platable hepatocytes. Test compound was assessed at three or six different concentrations in duplicate.
A sandwich culture of platable cryopreserved hepatocytes was used with one day recovery period after plating. Assessment of cell morphology and confluency was performed using a phase-contrast microscope for representative wells.
The plated hepatocyte cell monolayers were treated with test compound, negative and positive controls for two days changing medium every 24 hours. On the fourth day, assessment of cell morphology and confluency was repeated to ensure cell monolayer integrity. Assessment of cell morphology and confluency was performed using a phase-contrast microscope for representative wells.
Cell monolayers were assessed for test compound cytotoxicity by an adenosine triphosphate (ATP) content assay in a separate plate.
Expression levels of mRNA for CYP1A2, CYP2B6, and CYP3A4 were evaluated by the QuantiGene® Plex 2.0 methodology.

P2X7 receptor = P2X7 receptor (Homo sapiens (Human), UniProt Q99572); test: Human P2X7 channel calcium-influx assay (Fluo-8 NW, FLIPR TETRA, Bz-ATP stimulation); format: cell-based; conditions: HEK-293 cells stably transfected with P2X7 receptor, Low Divalent Cation Assay Buffer, read-out: hP2X7 IC50
In short: as §1

P2X7 receptor, sequence (Q99572 whole entry): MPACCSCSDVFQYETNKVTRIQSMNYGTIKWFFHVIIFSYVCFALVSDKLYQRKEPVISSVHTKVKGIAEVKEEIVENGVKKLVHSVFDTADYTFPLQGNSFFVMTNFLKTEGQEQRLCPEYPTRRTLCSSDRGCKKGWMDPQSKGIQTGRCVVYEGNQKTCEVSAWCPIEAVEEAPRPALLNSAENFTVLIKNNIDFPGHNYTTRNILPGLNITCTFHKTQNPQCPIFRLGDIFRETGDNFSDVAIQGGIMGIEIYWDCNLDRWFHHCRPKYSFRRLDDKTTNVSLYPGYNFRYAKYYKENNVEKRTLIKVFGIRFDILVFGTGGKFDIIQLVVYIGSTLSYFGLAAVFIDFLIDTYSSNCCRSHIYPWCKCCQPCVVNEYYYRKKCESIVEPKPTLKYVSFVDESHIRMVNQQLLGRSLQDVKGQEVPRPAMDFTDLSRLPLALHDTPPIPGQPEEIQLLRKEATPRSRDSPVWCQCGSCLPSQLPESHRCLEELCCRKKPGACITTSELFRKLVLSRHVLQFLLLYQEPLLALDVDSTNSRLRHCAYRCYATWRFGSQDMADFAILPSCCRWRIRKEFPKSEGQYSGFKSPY
mP2X7, sequence (Q9Z1M0 whole entry): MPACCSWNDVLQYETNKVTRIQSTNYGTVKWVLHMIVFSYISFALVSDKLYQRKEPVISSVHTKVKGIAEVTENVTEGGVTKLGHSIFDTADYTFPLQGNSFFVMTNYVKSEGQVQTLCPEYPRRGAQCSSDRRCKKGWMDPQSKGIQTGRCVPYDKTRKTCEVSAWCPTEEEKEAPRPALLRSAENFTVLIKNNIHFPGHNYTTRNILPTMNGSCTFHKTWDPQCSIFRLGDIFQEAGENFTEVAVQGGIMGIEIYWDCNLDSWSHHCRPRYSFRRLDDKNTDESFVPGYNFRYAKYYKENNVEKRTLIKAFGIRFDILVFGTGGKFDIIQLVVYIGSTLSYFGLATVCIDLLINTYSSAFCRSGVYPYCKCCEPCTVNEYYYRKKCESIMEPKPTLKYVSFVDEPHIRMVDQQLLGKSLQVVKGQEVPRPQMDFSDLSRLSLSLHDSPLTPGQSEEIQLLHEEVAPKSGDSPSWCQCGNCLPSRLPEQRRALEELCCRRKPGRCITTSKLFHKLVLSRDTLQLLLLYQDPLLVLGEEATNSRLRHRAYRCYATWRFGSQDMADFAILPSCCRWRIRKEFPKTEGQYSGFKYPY

| IC50 (mP2X7) [nM] | CYP4503A4 mRNA fold increase at 10 μM (CYP4503A4) [fold] | IC50 (P2X7 receptor) [nM] | Structure (SMILES) |
| --- | --- | --- | --- |
| 183 | 7.9 | 50.5 | Cc1nsc(OC2CCN(C(CNC(=O)c3c(F)cccc3Cl)c3scnc3C(F)F)CC2)n1 (stereo not drawn) [Example 11, 2-Chloro-N-{2-[4-(difluoromethyl)-1,3-thiazol-5-yl]-2-{4-[(3-methyl-1,2,4-thiadiazol-5-yl)oxy]piperidin-1-yl}ethyl}-6-fluorobenzamide] |
| 33.4 | 9.7 | 19.2 | O=C(NCC(c1scnc1C(F)F)N1CCC(Oc2nc(C3CC3)ns2)CC1)c1c(F)cccc1Cl (stereo not drawn) [Example 13, 2-Chloro-N-(2-{4-[(3-cyclopropyl-1,2,4-thiadiazol-5-yl)oxy]piperidin-1-yl}-2-[4-(difluoromethyl)-1,3-thiazol-5-yl]ethyl)-6-fluorobenzamide] |
| 82 | 6.0 | 21.3 | O=C(NCC(c1scnc1C(F)F)N1CCC(Oc2ccc(F)nn2)CC1)c1c(F)cccc1Cl (stereo not drawn) [Example 32, 2-Chloro-N-{2-[4-(difluoromethyl)-1,3-thiazol-5-yl]-2-{4-[(6-fluoropyridazin-3-yl)oxy]piperidin-1-yl}ethyl}-6-fluorobenzamide] |
| 550 | 1.9 | 254 | O=C(NCC(c1scnc1C(F)F)N1CCC(Oc2cncc3nncn23)CC1)c1c(F)cccc1Cl (stereo not drawn) [Example 45] |
| 658 | 4.5 | 264 | O=C(NCC(c1scnc1C(F)F)N1CCC(Oc2nccn3cnnc23)CC1)c1c(F)cccc1Cl (stereo not drawn) [Example 46, 2-Chloro-N-{2-[4-(difluoromethyl)-1,3-thiazol-5-yl]-2-(4-{[1,2,4]triazolo[4,3-a]pyrazin-8-yloxy}piperidin-1-yl)ethyl}-6-fluorobenzamide] |
| 36 | 7.6 | 74.9 | O=C(NCC(c1scnc1C(F)F)N1CCC(Oc2ccnc3cccnc23)CC1)c1c(F)cccc1Cl (stereo not drawn) [Example 48, 2-Chloro-N-{2-[4-(difluoromethyl)-1,3-thiazol-5-yl]-2-[4-(1,5-naphthyridin-4-yloxy)piperidin-1-yl]ethyl}-6-fluorobenzamide] |
| 96.2 | 4.9 | 56.2 | COc1cc(OC2CCN(C(CNC(=O)c3c(F)cccc3Cl)c3scnc3C(F)F)CC2)ncn1 (stereo not drawn) [Example 65, 2-Chloro-N-{2-[4-(difluoromethyl)-1,3-thiazol-5-yl]-2-{4-[(6-methoxypyrimidin-4-yl)oxy]piperidin-1-yl}ethyl}-6-fluorobenzamide] |
| 70.9 | 2.4 | 64.9 | Cc1cc(OC2CCN(C(CNC(=O)c3c(F)cccc3Cl)c3scnc3C(F)F)CC2)ccn1 (stereo not drawn) [Example 73, 2-Chloro-N-{2-[4-(difluoromethyl)-1,3-thiazol-5-yl]-2-{4-[(2-methylpyridin-4-yl)oxy]piperidin-1-yl}ethyl}-6-fluorobenzamide] |
| 82.1 | 2.2 | 53.8 | O=C(NCC(c1scnc1C(F)F)N1CCC(Oc2nccc(Cl)n2)CC1)c1c(F)cccc1Cl (stereo not drawn) [Example 75, 2-chloro-N-(2-{4-[(4-chloropyrimidin-2-yl)oxy]piperidin-1-yl}-2-[4-(difluoromethyl)-1,3-thiazol-5-yl]ethyl)-6-fluorobenzamide] |
| 28.9 | 5.1 | 43.7 | O=C(NCC(c1scnc1C(F)F)N1CCC(Oc2cncc(Cl)n2)CC1)c1c(F)cccc1Cl (stereo not drawn) [Example 76, 2-Chloro-N-(2-{4-[(6-chloropyrazin-2-yl)oxy]piperidin-1-yl}-2-[4-(difluoromethyl)-1,3-thiazol-5-yl]ethyl)-6-fluorobenzamide] |
| 180 | 3.6 | 73.1 | O=C(NCC(c1scnc1C(F)F)N1CCC(Oc2ccncn2)CC1)c1c(F)cccc1Cl (stereo not drawn) [Example 78, 2-Chloro-N-{2-[4-(difluoromethyl)-1,3-thiazol-5-yl]-2-[4-(pyrimidin-4-yloxy)piperidin-1-yl]ethyl}-6-fluorobenzamide] |
| 36.9 | 6.0 | 20.3 | O=C(NCC(c1scnc1C(F)F)N1CCC(Oc2ccnc(F)c2)CC1)c1c(F)cccc1Cl (stereo not drawn) [Example 80, 2-Chloro-N-{2-[4-(difluoromethyl)-1,3-thiazol-5-yl]-2-{4-[(2-fluoropyridin-4-yl)oxy]piperidin-1-yl}ethyl}-6-fluorobenzamide] |
| 38.1 | 4.8 | 20.1 | O=C(NCC(c1scnc1C(F)F)N1CCC(Oc2cc(F)ccn2)CC1)c1c(F)cccc1Cl (stereo not drawn) [Example 81, 2-chloro-N-{2-[4-(difluoromethyl)-1,3-thiazol-5-yl]-2-{4-[(4-fluoropyridin-2-yl)oxy]piperidin-1-yl}ethyl}-6-fluorobenzamide] |
| 68.7 | 9.7 | 32.4 | Cc1nsc(OCC2CCN(C(CNC(=O)c3c(F)cccc3Cl)c3scnc3C(F)F)CC2)n1 (stereo not drawn) [Example 85, 2-Chloro-N-{2-[4-(difluoromethyl)-1,3-thiazol-5-yl]-2-(4-{[(3-methyl-1,2,4-thiadiazol-5-yl)oxy]methyl}piperidin-1-yl)ethyl}-6-fluorobenzamide] |
| 30.4 | 6.4 | 36.9 | O=C(NCC(c1scnc1C(F)F)N1CCC(COc2nc(C3CC3)ns2)CC1)c1c(F)cccc1Cl (stereo not drawn) [Example 87, 2-Chloro-N-[2-(4-{[(3-cyclopropyl-1,2,4-thiadiazol-5-yl)oxy]methyl}piperidin-1-yl)-2-[4-(difluoromethyl)-1,3-thiazol-5-yl]ethyl]-6-fluorobenzamide] |
| 38.9 | 7.4 | 39.5 | N#Cc1cncc(OCC2CCN(C(CNC(=O)c3c(F)cccc3Cl)c3scnc3C(F)F)CC2)c1 (stereo not drawn) [Example 91, 2-Chloro-N-[2-(4-{[(5-cyanopyridin-3-yl)oxy]methyl}piperidin-1-yl)-2-[4-(difluoromethyl)-1,3-thiazol-5-yl]ethyl]-6-fluorobenzamide] |
| 22.7 | 6.5 | 43.6 | O=C(NCC(c1scnc1C(F)F)N1CCC(COc2nc3ccccc3s2)CC1)c1c(F)cccc1Cl (stereo not drawn) [Example 93, N-(2-{4-[(1,3-Benzothiazol-2-yloxy)methyl]piperidin-1-yl}-2-[4-(difluoromethyl)-1,3-thiazol-5-yl]ethyl)-2-chloro-6-fluorobenzamide] |
| 76.6 | 3.9 | 87.8 | Cc1ccc(OCC2CCN(C(CNC(=O)c3c(F)cccc3Cl)c3scnc3C(F)F)CC2)nn1 (stereo not drawn) [Example 101, 2-Chloro-N-{2-[4-(difluoromethyl)-1,3-thiazol-5-yl]-2-(4-{[(6-methylpyridazin-3-yl)oxy]methyl}piperidin-1-yl)ethyl}-6-fluorobenzamide] |
| 34 | 5.0 | 21.1 | O=C(NCC(c1scnc1C(F)F)N1CCC(COc2cc(F)ncn2)CC1)c1c(F)cccc1Cl (stereo not drawn) [Example 103, 2-Chloro-N-{2-[4-(difluoromethyl)-1,3-thiazol-5-yl]-2-(4-{[(6-fluoropyrimidin-4-yl)oxy]methyl}piperidin-1-yl)ethyl}-6-fluorobenzamide] |
| 103 | 7.4 | 49.6 | O=C(NCC(c1scnc1C(F)F)N1CCC(COc2ccc(F)nn2)CC1)c1c(F)cccc1Cl (stereo not drawn) [Example 104, 2-Chloro-N-{2-[4-(difluoromethyl)-1,3-thiazol-5-yl]-2-(4-{[(6-fluoropyridazin-3-yl)oxy]methyl}piperidin-1-yl)ethyl}-6-fluorobenzamide] |
| 30.5 | 4.9 | 39.6 | O=C(NCC(c1scnc1C(F)F)N1CCC(COc2nccnc2F)CC1)c1c(F)cccc1Cl (stereo not drawn) [Example 106, 2-Chloro-N-{2-[4-(difluoromethyl)-1,3-thiazol-5-yl]-2-(4-{[(3-fluoropyrazin-2-yl)oxy]methyl}piperidin-1-yl)ethyl}-6-fluorobenzamide] |
| 25 | 6.5 | 40.6 | N#Cc1cc(OCC2CCN(C(CNC(=O)c3c(F)cccc3Cl)c3scnc3C(F)F)CC2)ccn1 (stereo not drawn) [Example 110, 2-Chloro-N-[2-(4-{[(2-cyanopyridin-4-yl)oxy]methyl}piperidin-1-yl)-2-[4-(difluoromethyl)-1,3-thiazol-5-yl]ethyl]-6-fluorobenzamide] |
| 11.3 | 9.8 | 28.5 | O=C(NCC(c1scnc1C(F)F)N1CCC(COc2nccn3nccc23)CC1)c1c(F)cccc1Cl (stereo not drawn) [Example 116, 2-Chloro-N-{2-[4-(difluoromethyl)-1,3-thiazol-5-yl]-2-[4-({pyrazolo[1,5-a]pyrazin-4-yloxy}methyl)piperidin-1-yl]ethyl}-6-fluorobenzamide] |
